According to publication PMC12420824, “Discovery of a selective alpha-kinase 1 inhibitor for the rare genetic disease ROSAH syndrome” (Nature Communications, 2025):

Key:
IRR/INSRR = IRR/INSRR (Homo sapiens, UniProt P14616); experiment: HotSpot kinase assay; conditions: read-out: % Enzyme Activity (relative to DMSO control), 10 uM
From the text: (§1) Additionally, a 10-dose dilution series of staurosporine and other enzyme-appropriate compounds were included as positive control inhibitors.

CK1g1 = CK1g1 (Homo sapiens, UniProt Q9HCP0); experiment: HotSpot kinase assay; conditions: read-out: % Enzyme Activity (relative to DMSO control), 10 uM
From the text: as §1

LCK = LCK (Homo sapiens, UniProt P06239); experiment: HotSpot kinase assay; conditions: read-out: % Enzyme Activity (relative to DMSO control), 10 uM
From the text: as §1

NEK5 = NEK5 (Homo sapiens, UniProt Q6P3R8); experiment: HotSpot kinase assay; conditions: read-out: % Enzyme Activity (relative to DMSO control), 10 uM
From the text: as §1

MARK3 = MARK3 (Homo sapiens, UniProt P27448); experiment: HotSpot kinase assay; conditions: read-out: % Enzyme Activity (relative to DMSO control), 10 uM
From the text: as §1

[1] = 28 day GLP toxicology study; type: in vivo; conditions: rats
MARK4 = MARK4 (Homo sapiens, UniProt Q96L34); experiment: HotSpot kinase assay; conditions: read-out: % Enzyme Activity (relative to DMSO control), 10 uM
From the text: as §1

TYRO3/SKY = TYRO3/SKY (Homo sapiens, UniProt Q06418); experiment: HotSpot kinase assay; conditions: read-out: % Enzyme Activity (relative to DMSO control), 10 uM
From the text: as §1

MARK3, sequence (P27448 whole entry): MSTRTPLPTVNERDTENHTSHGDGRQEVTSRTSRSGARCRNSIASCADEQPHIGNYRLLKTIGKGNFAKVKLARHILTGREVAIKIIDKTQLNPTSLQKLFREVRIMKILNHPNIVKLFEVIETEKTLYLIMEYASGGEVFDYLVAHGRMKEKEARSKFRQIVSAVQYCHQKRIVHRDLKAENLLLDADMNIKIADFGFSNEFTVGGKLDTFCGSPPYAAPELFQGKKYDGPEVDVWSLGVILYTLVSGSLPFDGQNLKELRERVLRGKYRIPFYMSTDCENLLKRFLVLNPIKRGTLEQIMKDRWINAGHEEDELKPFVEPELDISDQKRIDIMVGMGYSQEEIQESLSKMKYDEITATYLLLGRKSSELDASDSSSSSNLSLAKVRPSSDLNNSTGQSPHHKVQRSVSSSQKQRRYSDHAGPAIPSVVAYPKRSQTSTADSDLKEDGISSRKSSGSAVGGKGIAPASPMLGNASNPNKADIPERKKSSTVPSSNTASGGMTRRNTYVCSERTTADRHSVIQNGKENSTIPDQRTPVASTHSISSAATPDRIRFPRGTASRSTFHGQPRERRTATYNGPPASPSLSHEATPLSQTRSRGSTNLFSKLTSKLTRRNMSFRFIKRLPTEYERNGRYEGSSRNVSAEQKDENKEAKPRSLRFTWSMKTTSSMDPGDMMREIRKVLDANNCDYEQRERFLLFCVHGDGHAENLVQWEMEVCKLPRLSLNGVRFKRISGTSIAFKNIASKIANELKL
MARK4, sequence (Q96L34 whole entry): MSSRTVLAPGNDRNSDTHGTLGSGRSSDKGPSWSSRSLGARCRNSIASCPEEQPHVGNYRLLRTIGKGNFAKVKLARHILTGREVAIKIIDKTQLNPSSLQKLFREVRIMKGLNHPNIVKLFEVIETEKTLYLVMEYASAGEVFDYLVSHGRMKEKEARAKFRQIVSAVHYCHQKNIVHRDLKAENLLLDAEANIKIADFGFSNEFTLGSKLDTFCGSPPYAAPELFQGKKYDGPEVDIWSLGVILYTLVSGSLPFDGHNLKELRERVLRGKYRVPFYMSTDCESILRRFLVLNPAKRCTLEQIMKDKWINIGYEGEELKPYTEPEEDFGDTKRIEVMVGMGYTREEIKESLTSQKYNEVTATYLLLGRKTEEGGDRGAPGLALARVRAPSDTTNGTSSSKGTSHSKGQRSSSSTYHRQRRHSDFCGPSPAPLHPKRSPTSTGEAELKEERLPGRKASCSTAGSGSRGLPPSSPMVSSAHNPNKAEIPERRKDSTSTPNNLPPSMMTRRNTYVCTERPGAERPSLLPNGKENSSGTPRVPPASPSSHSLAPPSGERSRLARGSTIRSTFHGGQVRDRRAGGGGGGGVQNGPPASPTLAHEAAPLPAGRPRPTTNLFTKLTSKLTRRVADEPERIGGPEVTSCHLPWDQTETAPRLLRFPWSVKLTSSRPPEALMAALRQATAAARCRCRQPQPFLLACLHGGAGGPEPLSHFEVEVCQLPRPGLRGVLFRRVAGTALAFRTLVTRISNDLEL
IRR/INSRR, sequence (P14616 27-1297): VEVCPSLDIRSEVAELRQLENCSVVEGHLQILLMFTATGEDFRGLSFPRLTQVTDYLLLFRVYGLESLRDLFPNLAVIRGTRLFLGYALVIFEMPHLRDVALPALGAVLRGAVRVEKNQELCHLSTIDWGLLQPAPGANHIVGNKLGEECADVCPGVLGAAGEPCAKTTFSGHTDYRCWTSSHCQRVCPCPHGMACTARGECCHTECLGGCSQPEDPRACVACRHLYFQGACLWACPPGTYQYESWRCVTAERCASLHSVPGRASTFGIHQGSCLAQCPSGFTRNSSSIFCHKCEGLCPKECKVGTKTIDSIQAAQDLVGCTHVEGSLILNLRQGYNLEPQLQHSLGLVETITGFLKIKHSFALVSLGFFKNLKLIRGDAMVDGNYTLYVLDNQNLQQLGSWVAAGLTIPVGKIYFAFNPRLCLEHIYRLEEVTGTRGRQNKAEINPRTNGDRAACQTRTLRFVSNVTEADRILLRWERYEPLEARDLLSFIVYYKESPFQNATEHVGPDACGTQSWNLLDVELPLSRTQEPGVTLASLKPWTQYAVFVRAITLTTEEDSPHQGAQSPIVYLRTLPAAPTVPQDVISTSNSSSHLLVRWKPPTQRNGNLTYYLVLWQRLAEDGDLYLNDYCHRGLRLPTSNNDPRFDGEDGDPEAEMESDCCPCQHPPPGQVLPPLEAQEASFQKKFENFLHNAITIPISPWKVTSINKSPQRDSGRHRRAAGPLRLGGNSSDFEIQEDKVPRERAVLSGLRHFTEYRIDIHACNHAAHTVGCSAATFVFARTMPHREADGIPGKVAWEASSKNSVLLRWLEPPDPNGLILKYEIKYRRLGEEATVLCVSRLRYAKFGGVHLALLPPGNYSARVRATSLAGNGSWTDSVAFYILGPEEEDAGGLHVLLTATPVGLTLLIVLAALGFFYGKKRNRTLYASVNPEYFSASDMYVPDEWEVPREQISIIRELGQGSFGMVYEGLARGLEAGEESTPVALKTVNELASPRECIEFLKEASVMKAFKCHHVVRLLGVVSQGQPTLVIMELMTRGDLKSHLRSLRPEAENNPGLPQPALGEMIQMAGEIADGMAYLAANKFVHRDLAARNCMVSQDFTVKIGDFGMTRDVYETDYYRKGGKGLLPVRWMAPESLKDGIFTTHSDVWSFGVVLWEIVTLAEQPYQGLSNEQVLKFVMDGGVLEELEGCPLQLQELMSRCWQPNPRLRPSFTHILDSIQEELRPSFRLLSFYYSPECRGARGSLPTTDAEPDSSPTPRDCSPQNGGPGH
LCK, sequence (P06239 whole entry): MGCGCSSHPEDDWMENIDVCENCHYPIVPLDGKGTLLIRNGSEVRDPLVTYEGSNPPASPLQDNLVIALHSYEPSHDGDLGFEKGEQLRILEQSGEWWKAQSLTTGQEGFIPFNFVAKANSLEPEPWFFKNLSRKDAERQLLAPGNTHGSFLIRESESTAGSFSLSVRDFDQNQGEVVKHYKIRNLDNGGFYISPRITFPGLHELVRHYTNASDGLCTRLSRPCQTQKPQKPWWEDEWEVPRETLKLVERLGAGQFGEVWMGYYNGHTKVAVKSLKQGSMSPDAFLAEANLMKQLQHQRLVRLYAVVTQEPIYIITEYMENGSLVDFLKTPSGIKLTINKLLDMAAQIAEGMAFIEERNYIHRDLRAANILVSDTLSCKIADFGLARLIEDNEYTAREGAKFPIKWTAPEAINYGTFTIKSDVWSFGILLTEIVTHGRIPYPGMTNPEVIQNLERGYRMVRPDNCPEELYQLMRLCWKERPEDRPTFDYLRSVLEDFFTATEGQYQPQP
CK1g1, sequence (Q9HCP0 whole entry): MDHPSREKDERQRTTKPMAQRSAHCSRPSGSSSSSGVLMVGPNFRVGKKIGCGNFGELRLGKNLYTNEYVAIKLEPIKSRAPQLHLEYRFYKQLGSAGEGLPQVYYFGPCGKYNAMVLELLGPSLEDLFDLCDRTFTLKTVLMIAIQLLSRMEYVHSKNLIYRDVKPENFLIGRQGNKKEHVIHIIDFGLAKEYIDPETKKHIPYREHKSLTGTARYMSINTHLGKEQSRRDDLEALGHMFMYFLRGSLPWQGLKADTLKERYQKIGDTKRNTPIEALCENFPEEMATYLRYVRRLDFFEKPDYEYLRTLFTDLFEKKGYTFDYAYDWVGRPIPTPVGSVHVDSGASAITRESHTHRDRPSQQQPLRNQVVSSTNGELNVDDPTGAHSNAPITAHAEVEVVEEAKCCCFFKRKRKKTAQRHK
NEK5, sequence (Q6P3R8 whole entry): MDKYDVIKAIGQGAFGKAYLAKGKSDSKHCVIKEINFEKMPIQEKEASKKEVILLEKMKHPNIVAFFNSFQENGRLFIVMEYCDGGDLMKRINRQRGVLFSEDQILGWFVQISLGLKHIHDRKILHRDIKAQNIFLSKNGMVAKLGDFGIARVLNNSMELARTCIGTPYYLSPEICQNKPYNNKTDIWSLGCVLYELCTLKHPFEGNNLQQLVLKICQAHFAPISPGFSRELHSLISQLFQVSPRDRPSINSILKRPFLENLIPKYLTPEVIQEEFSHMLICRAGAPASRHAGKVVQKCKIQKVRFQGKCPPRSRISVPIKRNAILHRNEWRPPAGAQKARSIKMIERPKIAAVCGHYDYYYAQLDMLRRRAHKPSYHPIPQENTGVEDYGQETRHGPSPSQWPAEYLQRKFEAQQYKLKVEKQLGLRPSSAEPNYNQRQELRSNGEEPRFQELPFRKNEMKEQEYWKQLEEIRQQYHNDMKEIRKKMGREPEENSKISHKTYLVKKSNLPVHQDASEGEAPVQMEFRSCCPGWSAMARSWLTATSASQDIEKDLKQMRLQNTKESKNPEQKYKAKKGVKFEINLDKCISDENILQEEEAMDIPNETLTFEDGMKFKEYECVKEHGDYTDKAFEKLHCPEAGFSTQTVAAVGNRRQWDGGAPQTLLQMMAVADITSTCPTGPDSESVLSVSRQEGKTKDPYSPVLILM

SMILES: C#C[C@@](C)(c1ccc(Cl)cc1)c1csc(NC(=O)c2c(F)cc(N3CCNCC3)cc2F)n1 (stereo in doubt) [DF-003]
- remaining activity at 10 µM (IRR/INSRR): 66.3%
- remaining activity at 10 µM (CK1g1): 95%
- remaining activity at 10 µM (LCK): 121%
- remaining activity at 10 µM (NEK5): 83.4%
- remaining activity at 10 µM (MARK3): 102%
- general immunosuppression [1]: no general immunosuppression was observed
- remaining activity at 10 µM (MARK4): 110%
- remaining activity at 10 µM (TYRO3/SKY): 51.8%
